Key:
Assay in all cases: drug sensitivity score (DSS) (DSS (dimensionless)); higher = more sensitive (stronger drug response)
[1] = test system: FIMM-PDC1 (patient-derived ovarian cancer cells); conditions: genetic perturbation: none (patient-derived cell culture)
How it was run: (§1)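 Ovarian cancer cell lines, after at least three days of shRNA induction with 100 ng/ml doxycycline, and patient-derived cultures were plated at 1 000 – 1 500 cells per well into 384-well plates pre-loaded with drugs at five concentrations spanning a 10,000-fold range. Plates were then kept for three days at 37 °C and 5.0 % CO2. Viability was measured as CellTiter-Glo luminescence on a PHERAstar FS, and each drug's dose-response curve was reduced to a drug sensitivity score computed by a previously described method.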

[2] = test system: FIMM-PDC3 (patient-derived ovarian cancer cells); conditions: genetic perturbation: none (patient-derived cell culture)
How it was run: as §1

[3] = test system: FIMM-PDC4 (patient-derived ovarian cancer cells); conditions: genetic perturbation: none (patient-derived cell culture)
How it was run: as §1

[4] = test system: FIMM-PDC5 (patient-derived ovarian cancer cells); conditions: genetic perturbation: none (patient-derived cell culture)
How it was run: as §1

[5] = test system: FIMM-PDC6 (patient-derived ovarian cancer cells); conditions: genetic perturbation: none (patient-derived cell culture)
How it was run: as §1

[6] = test system: FIMM-PDC7 (patient-derived ovarian cancer cells); conditions: genetic perturbation: none (patient-derived cell culture)
How it was run: as §1

[7] = test system: JHOS2
How it was run: as §1

[8] = test system: Kuramochi
How it was run: as §1

[9] = test system: OVSAHO
How it was run: as §1

[10] = genetic perturbation: DOX-induced PTK7 shRNA knockdown
[11] = genetic perturbation: DOX-induced control shRNA

Compound | drug sensitivity score [1] | drug sensitivity score [2] | drug sensitivity score [3] | drug sensitivity score [4] | drug sensitivity score [5] | drug sensitivity score [6] | drug sensitivity score [7, 10] | drug sensitivity score [7, 11] | drug sensitivity score [8, 10] | drug sensitivity score [8, 11] | drug sensitivity score [9, 10] | drug sensitivity score [9, 11]
Cc1ncc(-c2ccnc(Nc3ccc(S(C)(=O)=O)cc3)n2)n1C(C)C [AZD-5438] | 7.9 | 7.3 | 9.5 | 12.8 | 9.3 | 7.6 | 14.4 | 8.3 | 7.55 | 7.8 | 8.2 | 7
CO[C@@H](C(=O)N1Cc2[nH]nc(NC(=O)c3ccc(N4CCN(C)CC4)cc3)c2C1)c1ccccc1 [Danusertib] | 7.7 | 9.9 | 11.6 | 9.6 | 9.4 | 1.8 | 6.6 | 5.5 | 10.4 | 13 | 17.5 | 7.5
S=c1[nH]cnc2nc[nH]c12 [Mercaptopurine] | 3.75 | < 0 | < 0 | 2 | < 0 | < 0 | 0.1 | < 0 | 6.45 | 6.8 | 0.9 | 7.3
CCc1cncnc1N1CCN(Cc2nc3ccc(C(F)(F)F)cc3[nH]2)CC1 | 1.9 | 0.5 | 3.2 | 2.9 | 8.9 | 4.3 | 0.1 | 0.7 | 2.3 | 0.8 | 1.2 | 2
Cc1[nH]c2ccccc2c1CCNCc1ccc(/C=C/C(=O)NO)cc1 [Panobinostat] | 11 | 13.7 | 8.1 | 15 | 12.4 | 8.2 | 13 | 13.6 | 19 | 7.2 | 13.5 | 11.2
CO[C@H]1C[C@@H]2CC[C@@H](C)[C@@](O)(O2)C(=O)C(=O)N2CCCC[C@H]2C(=O)O[C@H]([C@H](C)C[C@@H]2CC[C@@H](OC(=O)C(C)(CO)CO)[C@H](OC)C2)CC(=O)[C@H](C)/C=C(\C)[C@@H](O)[C@@H](OC)C(=O)[C@H](C)C[C@H](C)/C=C/C=C/C=C/1C [Temsirolimus] | 2.25 | 2.8 | 8.7 | 12.2 | 5.7 | 4 | < 0 | 7.2 | 4.5 | 2.7 | 2.3 | 6.6
NS(=O)(=O)OC[C@@H]1C[C@@H](n2ccc3c(N[C@H]4CCc5ccccc54)ncnc32)C[C@@H]1O [Pevonedistat] | 3.75 | 5.2 | 9.4 | 5.7 | 7.1 | 12.2 | 16.2 | 12.4 | 6.65 | 2.6 | 3.7 | 6.5
CC[C@H](NC(=O)[C@H](C)NC)C(=O)N1C[C@@H](O)C[C@H]1Cc1c(-c2[nH]c3cc(F)ccc3c2C[C@@H]2C[C@H](O)CN2C(=O)[C@H](CC)NC(=O)[C@H](C)NC)[nH]c2cc(F)ccc12 [Birinapant] | 6.4 | 11.7 | < 0 | 0.6 | 4.1 | < 0 | 17.4 | 16.7 | 3.9 | 3.6 | 5.7 | 2.1
Cc1cc(OCc2nnc(SC3CCCC3)n2-c2cccnc2)ccc1-c1ccc(S(C)(=O)=O)cc1 [NMS-873] | 7.55 | 9.4 | 8.3 | 5.5 | 9.1 | 5 | 7.7 | 5.9 | 8.15 | 6.2 | 5.1 | 7.5
Nc1ncnc2c1nc(N)n2[C@@H]1O[C@H](CO)[C@@H](O)[C@H]1O [8-amino-adenosine] | 17.4 | 19.1 | 22.7 | 27.9 | 24.8 | 17.8 | 23.4 | 19.8 | 23.3 | 20.1 | 26.2 | 21.1
CO[C@H]1C(=O)[C@]2(C)[C@@H](OC)C[C@H]3OC[C@@]3(OC(C)=O)[C@H]2[C@H](OC(=O)c2ccccc2)[C@]2(O)C[C@H](OC(=O)[C@H](O)[C@@H](NC(=O)OC(C)(C)C)c3ccccc3)C(C)=C1C2(C)C [Cabazitaxel] | 17.4 | 21.9 | 23.9 | 23.5 | 8.7 | 12.7 | 20.4 | 13.8 | 19.6 | 3.8 | 12.3 | 15.3
Cc1cc(Nc2cc(N3CCN(C)CC3)nc(Sc3ccc(NC(=O)C4CC4)cc3)n2)n[nH]1 [Tozasertib] | 2.9 | 4.2 | 5.7 | 6.2 | 1.6 | 3.7 | 4.1 | 4.3 | 4.2 | 2.4 | 3.9 | 1.9
CC(C)n1nc(-c2ccc3oc(N)nc3c2)c2c(N)ncnc21 [Sapanisertib] | 7.5 | 7.6 | 15.4 | 21.2 | 16.3 | 16.3 | 6.9 | 9.3 | 10.1 | 10.7 | 14 | 11.6
C#Cc1cccc(Nc2ncnc3cc(OCCOC)c(OCCOC)cc23)c1 [Erlotinib] | 3.3 | 11.3 | 12 | 17.2 | 12.1 | 10 | 1.2 | 3.5 | 1.5 | 3 | 15.1 | 2.4
Nc1ccccc1NC(=O)c1ccc(CNC(=O)OCc2cccnc2)cc1 [Entinostat] | 7.1 | 9 | 4.5 | 8.2 | 6.6 | 6.5 | 4.5 | 2.5 | 8.05 | 2.3 | 8.5 | 4.6
COc1ccc2[nH]cc(/C=C3\C(=O)Nc4ccc(NC(=O)CCN5CCCCC5)cc43)c2c1 | 6.15 | 11 | 9.7 | 14.3 | 5.8 | 6.7 | 7.8 | 8 | 7.75 | 5.2 | 7.4 | 7.5
